Values quoted from earlier work as cited in article PMC4734747 (Journal of nuclear medicine : official publication, Society …, 2013).

What was measured:
P-gp = settings: rodents; ref 19 (Verbeek et al.)
P-gp at the human BBB [1] = settings: tariquidar 6 mg/kg; not necessarily the maximal increase
P-gp at the human BBB [2] = settings: brain, humans, no P-gp inhibition
P-gp at the BBB = settings: brain, macaques, no P-gp inhibition

SMILES	affinity to P-gp relative to verapamil (P-gp)	increase in the brain distribution (reported by K1) after P-gp inhibition (P-gp at the human BBB [1])	mean baseline K1 (P-gp at the human BBB [2])	mean baseline K1 (P-gp at the BBB)
CNCCCC(C#N)(c1ccc(OC)c(OC)c1)C(C)C (stereo not shown) [D617]	lower affinity to P-gp than does verapamil	–	–	–
CNC(=O)C(CCN1CCC(O)(c2ccc(Cl)cc2)CC1)(c1ccccc1)c1ccccc1 [dLOP, N-desmethyl-loperamide]	–	4 fold	0.015 mL/min/g	0.04 mL/min/g
